molecular target: T1, p38 MAP kinase (Homo sapiens, UniProt Q16539); experiment: p38 (MAP) kinase in vitro assay (transfer of γ-phosphate from γ-33P-ATP to Myelin Basic Protein); type: biochemical; conditions: phosphorylated recombinant p38 MAP kinase, MBP substrate, 30° C.
T1 construct: made in house; host or cells: E. coli (co-expressed with SEK-1 and MEKK)
Procedure: This example illustrates a p38 (MAP) kinase in vitro assay useful for evaluating the compounds of the invention.
The p38 MAP kinase inhibitory activity of compounds of this invention in vitro was determined by measuring the transfer of the γ-phosphate from γ-^33P-ATP by p-38 kinase to Myelin Basic Protein (MBP), using a minor modification of the method described in Ahn, et al., J. Biol. Chem. 266:4220-4227 (1991).
The phosphorylated form of the recombinant p38 MAP kinase was co-expressed with SEK-1 and MEKK in E. Coli (see, Khokhlatchev, et al., J. Biol. Chem. 272:11057-11062 (1997)) and then purified by affinity chromatography using a Nickel column.
The phosphorylated p38 MAP kinase was diluted in kinase buffer (20 mM 3-(N-morpholino)propanesulfonic acid, pH 7.2, 25 mM β-glycerol phosphate, 5 mM ethylene glycol-bis(beta-aminoethyl ether)-N,N,N′,N′-tetraacetic acid, 1 mM sodium ortho-vanadate, 1 mM dithiothreitol, 40 mM magnesium chloride). Test compound dissolved in DMSO or only DMSO (control) was added and the samples were incubated for 10 min at 30° C. The kinase reaction was initiated by the addition of a substrate cocktail containing MBP and γ-^33P-ATP. […] The phosphorylated MBP was then separated from the residual γ-^33P-ATP using a phosphocellulose membrane (Millipore, Bedfrod, Mass.) and quantitated using a scintillation counter (Packard, Meriden, Conn.).

T1 sequence (Q16539 whole entry): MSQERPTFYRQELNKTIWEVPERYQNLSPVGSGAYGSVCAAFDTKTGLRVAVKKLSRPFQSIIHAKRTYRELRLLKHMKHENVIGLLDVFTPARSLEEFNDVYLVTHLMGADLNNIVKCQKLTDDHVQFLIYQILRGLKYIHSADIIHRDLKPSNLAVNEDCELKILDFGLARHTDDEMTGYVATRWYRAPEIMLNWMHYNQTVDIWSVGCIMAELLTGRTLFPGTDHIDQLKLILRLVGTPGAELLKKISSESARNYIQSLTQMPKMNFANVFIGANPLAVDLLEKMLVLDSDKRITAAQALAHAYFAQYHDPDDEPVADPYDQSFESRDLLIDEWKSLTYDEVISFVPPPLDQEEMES

Row | SMILES | IC50 [nM]
1 | OC[C@H](O)CNc1cc(Oc2ccc(F)cc2F)cc2[nH]nc(-c3ccccc3Cl)c12 (stereo in doubt) [3-[3-(2-Chloro-phenyl)-6-(2,4-difluoro-phenoxy)-1H-indazol-4-ylamino]-propane-1,2-diol] | ~4
2 | O=C(Nc1n[nH]c2nc(Oc3ccc(F)cc3F)ncc12)c1ccccc1Br [2-Bromo-N-[6-(2,4-difluoro-phenoxy)-1H-pyrazolo[3,4-d]pyrimidin-3-yl]-benzamide] | ~16

system: not given; experiment: not given; conditions: not given

Row | melting point [°C] | SMILES
3 | 211.3 to 214.4 | CC(C)Nc1n[nH]c2nc(Oc3ccc(F)cc3F)ncc12 [Table 1 #1, [6-(2,4-Difluoro-phenoxy)-1H-pyrazolo[3,4-d]pyrimidin-3-yl]-isopropyl-amine]
4 | 226 to 226.9 | CCS(=O)(=O)Nc1n[nH]c2nc(Oc3ccc(F)cc3F)ncc12 [Table 1 #14, Ethanesulfonic acid [6-(2,4-difluoro-phenoxy)-1H-pyrazolo[3,4-d]pyrimidin-3-yl]-amide]

The next lines start with the compound.

Row | SMILES | melting point [°C]
5 | O=C(Nc1n[nH]c2nc(Oc3ccc(F)cc3F)ncc12)C1CCCC1 [Table 1 #38, Cyclopentanecarboxylic acid [6-(2,4-difluoro-phenoxy)-1H-pyrazolo[3,4-d]pyrimidin-3-yl]-amide] | 206.3 to 207.51
6 | O=C(Nc1n[nH]c2nc(Oc3ccc(F)cc3F)ncc12)OCc1ccccc1 [Table 1 #42, [6-(2,4-Difluoro-phenoxy)-1H-pyrazolo[3,4-d]pyrimidin-3-yl]-carbamic acid benzyl ester] | 270.1 to 272
7 | OC[C@H](O)COc1cc(Oc2ccc(F)cc2F)cc2[nH]nc(-c3ccccc3Cl)c12 (stereo in doubt) [Table 2 #1, 3-[3-(2-Chloro-phenyl)-6-(2,4-difluoro-phenoxy)-1H-indazol-4-yloxy]-propane-1,2-diol] | 93.3 to 94.6
